Data reported in patent publication US7745575B1 (Cellpep Pharma Inc., priority 2004, dated 2010).
Bridge positions count the residues as written; N and C are the ends. Peptide text beside a SMILES is read from it.

Experiment: toxicity in vivo, LD50 after intracerebroventricular injection
Conditions: mouse, icv or intrathecal, 20 g C57/BL6 mice
Experimental: Groups of six to eight mice per dose were injected with 5 μl peptide solution containing 0.1% (w/v) bovine serum albumin and 0.9% (w/v) NaCl. The LD50 values are set out in Table 5.

Row | Compound | LD50
1 | CC[C@H](C)[C@@H]1NC(=O)[C@H](CCCCN)NC(=O)[C@@H](NC(=O)[C@H](CCCCN)NC(=O)[C@@H](NC(=O)[C@H](CC(N)=O)NC(=O)[C@@H](NC(=O)[C@@H](NC(=O)[C@@H](NC(=O)CN)C(C)C)[C@@H](C)CC)[C@@H](C)CC)C(C)C)CSSC[C@@H]2NC(=O)[C@H](CCCCN)NC(=O)CNC(=O)[C@H](Cc3ccccc3)NC(=O)[C@H](CCCNC(=N)N)NC(=O)[C@H](CCSC)NC(=O)CNC(=O)[C@H](C)NC(=O)[C@H](CC(=O)O)NC(=O)[C@H](CCCCN)NC(=O)[C@@H]3CSSC[C@@H](C(=O)N[C@H](C(=O)N4CCC[C@H]4C(=O)N[C@@H](CCCCN)C(=O)O)[C@@H](C)O)NC(=O)[C@H](Cc4c[nH]cn4)NC(=O)[C@H](CSSC[C@H](NC(=O)[C@H](CCC(N)=O)NC(=O)[C@H](CCCNC(=N)N)NC(=O)[C@H](CO)NC1=O)C(=O)N[C@@H](CC(C)C)C(=O)N[C@@H](CCCCN)C(=O)N1CCC[C@H]1C(=O)N3)NC(=O)[C@H](CCCCN)NC(=O)[C@H](CCCNC(=N)N)NC(=O)[C@H](CC(N)=O)NC(=O)[C@H](CCSC)NC2=O | 5 µg/kg
2 | CC[C@H](C)[C@@H]1NC(=O)[C@H](CCCCN)NC(=O)[C@@H](NC(=O)[C@H](CCCCN)NC(=O)[C@@H](NC(=O)[C@H](CC(N)=O)NC(=O)[C@@H](NC(=O)[C@@H](NC(=O)[C@@H](NC(=O)CNC(C)=O)C(C)C)[C@@H](C)CC)[C@@H](C)CC)C(C)C)CSSC[C@@H]2NC(=O)[C@H](CCCCN)NC(=O)CNC(=O)[C@H](Cc3ccccc3)NC(=O)[C@H](CCCNC(=N)N)NC(=O)[C@H](CCSC)NC(=O)CNC(=O)[C@H](C)NC(=O)[C@H](CC(=O)O)NC(=O)[C@H](CCCNC(=N)N)NC(=O)[C@@H]3CSSC[C@@H](C(=O)N[C@H](C(=O)N4CCC[C@H]4C(=O)N[C@@H](CCCCN)C(=O)O)[C@@H](C)O)NC(=O)[C@H](Cc4c[nH]cn4)NC(=O)[C@H](CSSC[C@H](NC(=O)[C@H](CCC(N)=O)NC(=O)[C@H](CCCCN)NC(=O)[C@H](CO)NC1=O)C(=O)N[C@@H](CC(C)C)C(=O)N[C@@H](CCCCN)C(=O)N1CCC[C@H]1C(=O)N3)NC(=O)[C@H](CCCCN)NC(=O)CNC(=O)[C@H](CC(N)=O)NC(=O)[C@H](CCSC)NC2=O (Ac-GVIINVKCKISKQCLKPCRDAGMRFGKCMNGKCHCTPK-OH; disulfide 8-28, 14-33, 18-35) | 17.5 µg/kg
3 | CC[C@H](C)[C@@H]1NC(=O)[C@H](CCCCN)NC(=O)[C@@H](N)CSSC[C@@H]2NC(=O)[C@H](CCCCN)NC(=O)CNC(=O)[C@H](Cc3ccccc3)NC(=O)[C@H](CCCNC(=N)N)NC(=O)[C@H](CCSC)NC(=O)CNC(=O)[C@H](C)NC(=O)[C@H](CC(=O)O)NC(=O)[C@H](CCCCN)NC(=O)[C@@H]3CSSC[C@@H](C(=O)N[C@H](C(=O)N4CCC[C@H]4C(=O)N[C@@H](CCCCN)C(=O)O)[C@@H](C)O)NC(=O)[C@H](Cc4c[nH]cn4)NC(=O)[C@H](CSSC[C@H](NC(=O)[C@H](CCC(N)=O)NC(=O)[C@H](CCCNC(=N)N)NC(=O)[C@H](CO)NC1=O)C(=O)N[C@@H](CC(C)C)C(=O)N[C@@H](CCCCN)C(=O)N1CCC[C@H]1C(=O)N3)NC(=O)[C@H](CCCCN)NC(=O)CNC(=O)[C@H](CC(N)=O)NC(=O)[C@H](CCSC)NC2=O (H-CKISRQCLKPCKDAGMRFGKCMNGKCHCTPK-OH; disulfide 1-21, 7-26, 11-28) | 15 µg/kg
4 | CC[C@H](C)[C@@H]1NC(=O)[C@H](CCCCN)NC(=O)[C@@H](NC(=O)[C@H](CCCCN)NC(=O)[C@@H](NC(=O)[C@H](CC(N)=O)NC(=O)[C@@H](NC(=O)[C@@H](NC(=O)[C@@H](NC(=O)CN)C(C)C)[C@@H](C)CC)[C@@H](C)CC)C(C)C)CSSC[C@@H]2NC(=O)[C@H](CCCCN)NC(=O)CNC(=O)[C@H](Cc3ccccc3)NC(=O)[C@H](CCCNC(=N)N)NC(=O)[C@H](CCSC)NC(=O)CNC(=O)[C@H](C)NC(=O)[C@H](CC(=O)O)NC(=O)[C@H](CCCCN)NC(=O)[C@@H]3CSSC[C@@H](C(=O)N[C@H](C(=O)N4CCC[C@H]4C(=O)N[C@@H](CCCCN)C(=O)O)[C@@H](C)O)NC(=O)[C@H](Cc4c[nH]cn4)NC(=O)[C@H](CSSC[C@H](NC(=O)[C@H](CCC(N)=O)NC(=O)[C@@H]4CCCN4C(=O)[C@H](CO)NC1=O)C(=O)N[C@@H](CC(C)C)C(=O)N[C@@H](CCCCN)C(=O)N1CCC[C@H]1C(=O)N3)NC(=O)[C@H](CCCCN)NC(=O)CNC(=O)[C@H](CC(N)=O)NC(=O)[C@H](CCSC)NC2=O (H-GVIINVKCKISPQCLKPCKDAGMRFGKCMNGKCHCTPK-OH; disulfide 8-28, 14-33, 18-35) | 7.5 µg/kg
5 | CC[C@H](C)[C@@H]1NC(=O)[C@H](CCCCN)NC(=O)[C@@H](NC(=O)[C@H](CCCCN)NC(=O)[C@@H](NC(=O)[C@H](CC(N)=O)NC(=O)[C@@H](NC(=O)[C@@H](NC(=O)[C@@H](NC(=O)CN)C(C)C)[C@@H](C)CC)[C@@H](C)CC)C(C)C)CSSC[C@@H]2NC(=O)[C@H](CCCCN)NC(=O)CNC(=O)[C@H](Cc3ccccc3)NC(=O)[C@H](CCCNC(=N)N)NC(=O)[C@H](CCSC)NC(=O)CNC(=O)[C@H](C)NC(=O)[C@H](CC(=O)O)NC(=O)[C@H](CCCCN)NC(=O)[C@@H]3CSSC[C@@H](C(=O)O)NC(=O)[C@H](Cc4c[nH]cn4)NC(=O)[C@H](CSSC[C@H](NC(=O)[C@H](CCC(N)=O)NC(=O)[C@H](CCCNC(=N)N)NC(=O)[C@H](CO)NC1=O)C(=O)N[C@@H](CC(C)C)C(=O)N[C@@H](CCCCN)C(=O)N1CCC[C@H]1C(=O)N3)NC(=O)[C@H](CCCCN)NC(=O)CNC(=O)[C@H](CC(N)=O)NC(=O)[C@H](CCSC)NC2=O (H-GVIINVKCKISRQCLKPCKDAGMRFGKCMNGKCHC-OH; disulfide 8-28, 14-33, 18-35) | 800 µg/kg
6 | CC[C@H](C)[C@@H]1NC(=O)[C@H](CCCCN)NC(=O)[C@@H](NC(=O)[C@H](CCCCN)NC(=O)[C@@H](NC(=O)[C@H](CC(N)=O)NC(=O)[C@@H](NC(=O)[C@@H](NC(=O)[C@@H](NC(=O)CN)C(C)C)[C@@H](C)CC)[C@@H](C)CC)C(C)C)CSSC[C@@H]2NC(=O)[C@H](CCCCN)NC(=O)CNC(=O)[C@H](CC(N)=O)NC(=O)[C@H](CCCNC(=N)N)NC(=O)[C@H](CCSC)NC(=O)CNC(=O)[C@H](C)NC(=O)[C@H](CC(=O)O)NC(=O)[C@H](CCCCN)NC(=O)[C@@H]3CSSC[C@@H](C(=O)N[C@H](C(=O)N4CCC[C@H]4C(=O)N[C@@H](CCCCN)C(=O)O)[C@@H](C)O)NC(=O)[C@H](Cc4c[nH]cn4)NC(=O)[C@H](CSSC[C@H](NC(=O)[C@H](CCC(N)=O)NC(=O)[C@H](CCCNC(=N)N)NC(=O)[C@H](CO)NC1=O)C(=O)N[C@@H](CC(C)C)C(=O)N[C@@H](CCCCN)C(=O)N1CCC[C@H]1C(=O)N3)NC(=O)[C@H](CCCCN)NC(=O)CNC(=O)[C@H](CC(N)=O)NC(=O)[C@H](CCSC)NC2=O (H-GVIINVKCKISRQCLKPCKDAGMRNGKCMNGKCHCTPK-OH; disulfide 8-28, 14-33, 18-35) | 11.5 µg/kg
7 | CC[C@H](C)[C@@H]1NC(=O)[C@H](CCCCN)NC(=O)[C@@H](NC(=O)[C@@H](N)CCCCN)CSSC[C@@H]2NC(=O)[C@H](CCCCN)NC(=O)CNC(=O)[C@H](Cc3ccccc3)NC(=O)[C@H](CCCNC(=N)N)NC(=O)[C@H](CCSC)NC(=O)CNC(=O)[C@H](C)NC(=O)[C@H](CC(=O)O)NC(=O)[C@H](CCCCN)NC(=O)[C@@H]3CSSC[C@@H](C(=O)N[C@H](C(=O)N4CCC[C@H]4C(=O)N[C@@H](CCCCN)C(=O)O)[C@@H](C)O)NC(=O)[C@H](Cc4c[nH]cn4)NC(=O)[C@H](CSSC[C@H](NC(=O)[C@H](CCC(N)=O)NC(=O)[C@H](CCCNC(=N)N)NC(=O)[C@H](CO)NC1=O)C(=O)N[C@@H](CC(C)C)C(=O)N[C@@H](CCCCN)C(=O)N1CCC[C@H]1C(=O)N3)NC(=O)[C@H](CCCCN)NC(=O)CNC(=O)[C@H](CC(N)=O)NC(=O)[C@H](CCSC)NC2=O (H-KCKISRQCLKPCKDAGMRFGKCMNGKCHCTPK-OH; disulfide 2-22, 8-27, 12-29) | 6.5 µg/kg
8 | CC[C@H](C)[C@@H]1NC(=O)[C@H](CCCCN)NC(=O)[C@@H](NC(=O)[C@H](CCCCN)NC(=O)[C@@H](NC(=O)[C@@H](N)CC(N)=O)C(C)C)CSSC[C@@H]2NC(=O)[C@H](CCCCN)NC(=O)CNC(=O)[C@H](Cc3ccccc3)NC(=O)[C@H](CCCNC(=N)N)NC(=O)[C@H](CCSC)NC(=O)CNC(=O)[C@H](C)NC(=O)[C@H](CC(=O)O)NC(=O)[C@H](CCCCN)NC(=O)[C@@H]3CSSC[C@@H](C(=O)N[C@H](C(=O)N4CCC[C@H]4C(=O)N[C@@H](CCCCN)C(=O)O)[C@@H](C)O)NC(=O)[C@H](Cc4c[nH]cn4)NC(=O)[C@H](CSSC[C@H](NC(=O)[C@H](CCC(N)=O)NC(=O)[C@H](CCCNC(=N)N)NC(=O)[C@H](CO)NC1=O)C(=O)N[C@@H](CC(C)C)C(=O)N[C@@H](CCCCN)C(=O)N1CCC[C@H]1C(=O)N3)NC(=O)[C@H](CCCCN)NC(=O)CNC(=O)[C@H](CC(N)=O)NC(=O)[C@H](CCSC)NC2=O (H-NVKCKISRQCLKPCKDAGMRFGKCMNGKCHCTPK-OH; disulfide 4-24, 10-29, 14-31) | 5 µg/kg
9 | CC[C@H](C)[C@@H]1NC(=O)[C@H](CCCCN)NC(=O)[C@@H](NC(=O)[C@H](CCCCN)NC(=O)[C@@H](NC(=O)[C@H](CC(N)=O)NC(=O)[C@@H](NC(=O)[C@@H](NC(=O)[C@@H](N)[C@@H](C)O)[C@@H](C)CC)[C@@H](C)CC)C(C)C)CSSC[C@@H]2NC(=O)[C@H](CCCCN)NC(=O)CNC(=O)[C@H](Cc3ccccc3)NC(=O)[C@H](CCCNC(=N)N)NC(=O)[C@H](CCSC)NC(=O)CNC(=O)[C@H](C)NC(=O)[C@H](CC(=O)O)NC(=O)[C@H](CCCCN)NC(=O)[C@@H]3CSSC[C@@H](C(=O)N[C@H](C(=O)N4CCC[C@H]4C(=O)N[C@@H](CCCCN)C(=O)O)[C@@H](C)O)NC(=O)[C@H](Cc4c[nH]cn4)NC(=O)[C@H](CSSC[C@H](NC(=O)[C@H](CCC(N)=O)NC(=O)[C@H](CCCNC(=N)N)NC(=O)[C@H](CO)NC1=O)C(=O)N[C@@H](CC(C)C)C(=O)N[C@@H](CCCCN)C(=O)N1CCC[C@H]1C(=O)N3)NC(=O)[C@H](CCCCN)NC(=O)CNC(=O)[C@H](CC(N)=O)NC(=O)[C@H](CCSC)NC2=O (H-TIINVKCKISRQCLKPCKDAGMRFGKCMNGKCHCTPK-OH; disulfide 7-27, 13-32, 17-34) | 3 µg/kg
